This is an account of results in patent US5141957A, “1,4-bis-(amino-hydroxyalkylamino)-anthraquinones for inhibiting protein kinase C” (Sphinx Pharmaceuticals Corporation, priority 1990, dated 1992).

Counter-ions that a name gives are not always drawn.

One assay deals with Protein kinase C (PKC). Nature of the assay: Protein kinase C inhibition (histone H1 phosphorylation, 32P-ATP). Format: biochemical. The following applies: histone H1 substrate; enzyme from rat brain; 20 μM ATP; pH 7.5; 10 min. On the procedure: The protein kinase C (PKC) assay is designed to duplicated the in vivo conditions required for protein kinase C function. Therefore, pH, salt and cofactor concentrations are similar to physiologic levels. Histone Hl (lysine rich) is used in the assay as the phosphorylation acceptor protein because it is readily available and serves as a good substrate for protein kinase C. The enzyme is prepared from rat brain and is purified to apparent homogeneity as determined by a single band on silver stained SDS-polyacrylamide. Studies on the mechanism of regulation of protein kinase C by phospholipids, DAG and Ca^+2 have been hampered by the physical properties of the lipid cofactors. In the screening assay, phosphatidylserine (PS) and DAG are co-sonicated to form unilamellar and multilamellar vesicles. The concentration of lipids in the assay are suboptimal to maximize the detection potential of the assay for inhibitors. Potential inhibitor compounds are added to the assay in dimethylsulfoxide at three concentrations to give final inhibitor concentrations of 4.3, 43 and 218 μM, respectively. The assay is started with the addition of enzyme and stopped after 10 min by the addition of 25 % trichloroacetic acid (TCA) and 1.0 mg/ml bovine serum albumin (BSA). […] The amount of phosphorylation is determined by the radioactivity measured in a scintillation counter. […]

Another assay has as its system CEM cells. Nature of the assay: Human tumor cell growth inhibition (3H-thymidine incorporation), CEM. Format: cell-based. The following applies: CCRF-CEM, inhibition of 3H-thymidine incorporation, 18-24 hrs + 4 hrs. From the text:
(§1) MCF-7 a human breast tumor cell line and MCF-7/ADR an adriamycin resistant line of MCF-7 cells were obtained from the National Cancer Institute, Frederick, Md. CEM cells (ATCC accession number CCL 119) were obtained from the American Type Culture Collection, Rockville, Md. Human tumor cells are trypsinized (0.05% trypsin, GIBCO), counted with a hemacytometer and seeded at a concentration of 10,000 cells/well in a 96 well microtiter plate. After allowing cells to attach to the surface overnight, the culture medium is aspirated and replaced with 100 μl of fresh medium. Test agents are diluted to determine dose response at 2× final concentration and added in quadruplicate at 100 μl/well to bring the total volume of each well to 200 μl . The microtiter plate is then incubated at 37° C. 5% CO2 overnight (18-24 hrs) before ^3 H-thymidine is added at a concentration of 0.5 μCi/well in 50 μl culture medium. The plate is incubated again for 4 hrs under the same conditions as above. Supernatant is then aspirated and 50μl trypsin (0.05%, GIBCO) is added to each well. Cells are checked microscopically to determine detachment from surfaces, and plates are then harvested with a cell harvester (PHD, Cambridge Technology, Inc.) Filter papers corresponding to wells are placed in scintillation vials and counted to determine the amount of ^3 H-thymidine incorporated by the cells. […]
Background: Dividing cells build labelled thymidine or BrdU into new DNA.

Assay [1] concerns MCF-7 human breast tumor cell line. Nature of the assay: Human tumor cell growth inhibition (3H-thymidine incorporation), MCF-7. It is filed as cell-based. The following applies: MCF7, inhibition of 3H-thymidine incorporation, 18-24 hrs + 4 hrs.
Text: as §1

In assay [2] the test system is MCF-7/ADR adriamycin resistant line of MCF-7 cells. Nature of the assay: Human tumor cell growth inhibition (3H-thymidine incorporation), MCF-7/ADR. It is filed as cell-based. The following applies: NCI/ADR-RES, inhibition of 3H-thymidine incorporation, 18-24 hrs + 4 hrs.
Text: as §1

The subject of assay [3] is Proliferating keratinocytes (NHEK cells). Nature of the assay: Human keratinocyte inhibition (3H-thymidine incorporation). Format: cell-based. The following applies: second passage, inhibition of 3H-thymidine incorporation. As for the experimental part: as §1, with “Human” for “MCF-7 a human breast tumor cell line and MCF-7/ADR an adriamycin resistant line of MCF-7 cells were obtained from the National Cancer Institute, Frederick, Md. CEM cells (ATCC accession number CCL 119) were obtained from the American Type Culture Collection, Rockville, Md. Human”, “Supernatant is then aspirated and 50μl trypsin (0.05%, GIBCO) is added to each well.” left out
Proliferating keratinocytes (NHEK cells purchased from Clonetics, Inc., San Diego, Calif.) in second passage were grown in Keratinocyte Growth Medium (KGM) (Clonetics, Inc.) Cells are trypsinized (0.025% trypsin, Clonetics), counted with a hemacytometer (Scientific Products), and seeded at a concentration of 2,500 cells/well in a 96 well microtiter plate. […]

The test system of assay [4] is PMA-stimulated neutrophils. Nature of the assay: Neutrophil superoxide anion (O2-) release assay. It is filed as cell-based. The following applies: Homo sapiens, 0.5 h, 37° C., 30 min, cytochrome c reduction at 550 nm, read-out: IC50, PMA-stimulated O2- production (respiratory burst). As for the experimental part:
Neutrophils are isolated form whole blood collected from human volunteers. All reagent materials are obtained from Sigma Chemical Company with the exception of isotonic saline (Travenol Laboratories, Inc., Deerfield, Ill.) and lymphocyte separation medium (Organon Teknika, Durham, N.C.).
Whole blood is drawn and mixed with sodium heparin (final conc. 10 units/ml) to prevent clotting. An equal volume of dextran (3.0%) in isotonic saline is added, mixed, and allowed to settle for 30 min to bind red blood cells (RBC). Supernatant is removed, underlayered with lymphocyte separation medium and centrifuged for 40 min at 400 ×g in a centrifuge (Beckman GPR, Norcross, Ga.). The pellet is alternately resuspended in 0.2% and 1.6% NaCl to lyse RBCs before washing with Hank's Balanced Salt Solution (HBSS). […]
The neutrophil cell concentration is adjusted to 2×10^6 cells/ml with HBSS before adding 0.8 ml cells to 12×75 mm polypropylene test tubes (Fisher Scientific). […] Optical density (OD) of cytochrome c is read in a spectrophotometer (Shimadzu) at 550 nm. […] Reducing cytochrome c increases its absorbance, and the change in OD of cytochrome c is proportional to the amount of O2^- produced by PMA stimulation. […] Inhibition is expressed as IC50 μM and is the amount of test compound that will inhibit fifty per cent of the PMA-stimulated respiratory outburst, i.e. O2^- production.

For `CCCNCC(O)CNc1ccc(NCC(O)CNCCC)c2c1C(=O)c1ccccc1C2=O` (stereo not shown) [Compound 1a, 1,4-Bis-(3-Propylamino-2-Hydroxypropylamino)-9, 10 anthracenedione hydrochloride], the IC50 at Protein kinase C (PKC) was 199 µM; in the assay on CEM cells, 5.6 µM; in assay [1], 2.4 µM; in assay [2] it was greater than 25 µM.
Consider `O=C1c2ccccc2C(=O)c2c(NCC(O)CNCc3ccccc3)ccc(NCC(O)CNCc3ccccc3)c21` (stereo not shown) [Compound 1b, 1,4-Bis-(3-Benzylamino-2-Hydroxypropylamino)-9, 10 anthracenedione. Hydrochloride salt], for which the 50% inhibitory concentration (IC50) at Protein kinase C (PKC) was found to be 43 µM; in the assay with CEM cells, 2.7 µM; in assay [1], 2.7 µM; in assay [2] it was 17 µM; in assay [3], 4 µM; in assay [4], 3.9 µM.

Broadly, the IC50 is the point on the concentration scale where inhibition reaches its midpoint.
